Key:
[1] = tested on: MCF7 breast cancer cells; details: FIG. 4 comparison, MTT, 0 to 200 μg/mL
[2] = DPPH free radical scavenging assay; format: biochemical
Experimental: The DPPH assay was used to evaluate the free radical-scavenging of chlorophyllide. Briefly, DPPH (8 mg) was dissolved in methanol (100 mL) to obtain a stock solution of 80 μg/mL. Then, 2.95 mL of the working solution was mixed with 50 μL of sample. After incubation in a dark at room temperature for 20 min, the absorbance was measured at 517 nm. The DPPH scavenging effect (%) was determined using the following formula: […]
where Ac was the absorbance of the blank control, Ai was the absorbance in the presence of the samples, and Aj was the absorbance of the samples alone. Vitamin B2 was used as a reference standard compound.

[3] = tested on: MCF7 breast cancer cells; experiment: Target gene expression by RT-PCR, MCF7; format: cell-based, human; details: MCF7 treated with chlorophyllide
Text: (§1) Then, among the 50 candidate genes, CCR1, STIM2, ETNK1, RAP2B, and TOP2A were used as target genes in real-time polymerase chain reaction (RT-PCR).

[4] = tested on: MCF7 / MDA-MB-231 breast cancer cells; experiment: Log2 fold change of target genes (Table 5, cell line and method not stated); format: cell-based, human
Experimental: The gene expression profiles of the MCF7 breast cancer cells treated with chlorophyllide or MDA-MB-231 breast cancer cells treated with chlorophyllide and the corresponding untreated cells were analyzed by using next generation sequencing (NGS).
as §1

[5] = tested on: MDA-MB-231 breast cancer cells; experiment: Target gene expression by RT-PCR, MDA-MB-231; format: cell-based, human; details: MDA-MB-231 treated with chlorophyllide
Text: as §1

Molecule: chlorophyll
- IC50 [1]: 197.31 µg/mL
- DPPH scavenging rate ([2]; 100 μg/mL): 52.95%
- DPPH scavenging rate ([2]; 200 μg/mL): 65.11%
- DPPH scavenging rate ([2]; 400 μg/mL): 88.62%
- EC50 (concentration that can inhibit 50% of DPPH free radicals) ([2]; by extrapolation from regression analysis): 62.14 µg/mL

Molecule: chlorophyllide
- gene expression level by RT-PCR, CCR1 ([3]; gene CCR1): 6.798
- gene expression level by RT-PCR, ETNK1 ([3]; gene ETNK1): 1.987
- gene expression level by RT-PCR, MAGI1 ([3]; gene MAGI1): 3.126
- gene expression level by RT-PCR, NLRC5 ([3]; gene NLRC5): 0.684
- gene expression level by RT-PCR, PKN1 ([3]; gene PKN1): 1.167
- gene expression level by RT-PCR, RAP2B ([3]; gene RAP2B): 0.5882
- gene expression level by RT-PCR, SLC7A7 ([3]; gene SLC7A7): 0.3107
- gene expression level by RT-PCR, STIM2 ([3]; gene STIM2): 6.125
- gene expression level by RT-PCR, TOP2A ([3]; gene TOP2A): 1.574
- Log2 fold change, CCR1 ([4]; gene CCR1): 5.954
- Log2 fold change, ETNK1 ([4]; gene ETNK1): 2.181
- Log2 fold change, RAP2B ([4]; gene RAP2B): 2.375
- Log2 fold change, STIM2 ([4]; gene STIM2): 2.783
- gene expression level by RT-PCR, CCR1 ([5]; gene CCR1): 10.079
- gene expression level by RT-PCR, ETNK1 ([5]; gene ETNK1): 5.954
- gene expression level by RT-PCR, MAGI1 ([5]; gene MAGI1): 1.3977
- gene expression level by RT-PCR, NLRC5 ([5]; gene NLRC5): 5.527
- gene expression level by RT-PCR, PKN1 ([5]; gene PKN1): 0.5819
- gene expression level by RT-PCR, RAP2B ([5]; gene RAP2B): 3.694
- gene expression level by RT-PCR, SLC7A7 ([5]; gene SLC7A7): 1.159
- gene expression level by RT-PCR, STIM2 ([5]; gene STIM2): 3.5088
- gene expression level by RT-PCR, TOP2A ([5]; gene TOP2A): 11.02
- DPPH scavenging rate ([2]; 100 μg/mL): 31.01%
- DPPH scavenging rate ([2]; 200 μg/mL): 26.92%
- DPPH scavenging rate ([2]; 400 μg/mL): 26.09%

Molecule: Cc1cc2nc3c(=O)[nH]c(=O)nc-3n(C[C@H](O)[C@H](O)[C@H](O)CO)c2cc1C [vitamin B2]
- DPPH scavenging rate ([2]; 100 μg/mL): 28.05%

Molecule: chlorophyllin
- IC50 [1]: 218.34 µg/mL
- DPPH scavenging rate ([2]; 100 μg/mL): 25.68%
- DPPH scavenging rate ([2]; 200 μg/mL): 30.58%
- DPPH scavenging rate ([2]; 400 μg/mL): 45.34%

Reference: patent US20220175729A1, “PHARMACEUTICAL USE OF CHLOROPHYLLIDE FOR CANCER THERAPY” (I-SHOU UNIVERSITY, priority 2020, published 2022)
